From patent US9422300B2, “Bisulfate of janus kinase (JAK) inhibitor and preparation method therefor” (Jiangsu Hengrui Medicine Co., Ltd., priority 2013, dated 2016)
Where two headings read alike, the source gives them in different places.

What was measured:
[1] = Pharmacokinetic parameters in rhesus monkeys; assay type: in vivo; settings: for AUC(0-t) / Cmax / MRT / t1/2: plasma, rhesus monkeys, single dose; for AUC(0-t) / Cmax / MRT / individual variation of in vivo exposure / t1/2: 50 mg/kg
Procedure: The pharmacokinetic parameters of the compound of formula (IV) and its different salt forms were studied in rhesus monkeys, and the properties of the different forms of the compounds were evaluated in detail. Four rhesus monkeys were used as test animals, half male and half female. The rhesus monkeys were administered a single dose of 50 mg/kg. Multi-crossover design was adopted to administer different drugs to test animals, and the convalescence from each cycle was three days. Blood samples (0.5 mL) were taken from the femoral vein before administration (0 h), and at 0.25 h, 0.5 h, 1 h, 2 h, 4 h, 6 h, 8 h and 24 h after administration, stored in heparinized tubes, shaken well, and centrifuged for 10 minutes at 3500 rpm to separate blood plasma. The plasma samples were stored at low temperature, LC-MS/MS was used to measure drug concentration in plasma and liver, and pharmacokinetic parameters were analyzed by WinNonlin 5.3 software.

[2] = tested on: rheumatoid arthritis patients; settings: phase III clinical trial, cited from earlier work

Row | Molecule | t1/2 [1] [h] | AUC(0-t) [1] [ng·h/mL] | Cmax [1] [ng/mL] | MRT [1] [h] | also measured
1 | COc1nsc(NC(=O)N2C[C@H]3C[C@H](N(C)c4ncnc5[nH]ccc45)C[C@H]3C2)n1 [Bisulfate, (3aR,5s,6aS)—N-(3-methoxyl-1,2,4-thiadiazol-5-yl)-5-(methyl(7H-pyrrolo[2,3-d]pyrimidin-4-yl)amino)hexahydrocyclopenta[c]pyrrole-2(1H)-carboxamide bisulfate] | 5.3 ± 1.6 | – | – | – | AUC(0-t) ([1]; both sexes, rhesus monkey, read-out: AUC(0-t)): 63000 ± 53600 ng·h/mL; Cmax ([1]; both sexes, rhesus monkey, read-out: Cmax): 9940 ± 5320 ng/mL; MRT ([1]; both sexes, rhesus monkey, read-out: MRT): 6.3 ± 1.7 h; increase of in vivo exposure relative to that of the base ([1]; monkeys, 50 mg/kg single dose): 50%; individual variation of in vivo exposure ([1]; monkeys, 50 mg/kg single dose, listed as bisulfate salt): relatively small individual variation
2 | COc1nsc(NC(=O)N2C[C@H]3C[C@H](N(C)c4ncnc5[nH]ccc45)C[C@H]3C2)n1 [Compound of formula (IV), (3aR,5s,6aS)—N-(3-Methoxy-1,2,4-thiadiazol-5-yl)-5-(methyl(7H-pyrrolo[2,3-d]pyrimidin-4-yl)amino)hexahydrocyclopenta[c]pyrrol-2(1H)-carboxamide] | 6.3 ± 3.5 | 41111 ± 59593 | 6176 ± 8838 | 8.8 ± 5.16 | in vivo exposure ([1]; monkeys, 50 mg/kg single dose): 41111 ng/ml*h; individual variation of in vivo exposure ([1]; monkeys, 50 mg/kg single dose): relatively large individual variation
3 | C[C@@H]1CCN(C(=O)CC#N)C[C@@H]1N(C)c1ncnc2[nH]ccc12 [tofacitinib] | – | – | – | – | efficacy compared with methotrexate ([2]; 5 mg/10 mg as a single drug): significantly better than methotrexate; efficacy in reducing the progression of internal structural damage compared with methotrexate ([2]; period of six months): slightly better than methotrexate
4 | Citrate | 6.3 ± 5.5 | 44357 ± 45012 | 5627 ± 4201 | 10.0 ± 7.6 | –
